Measured values taken from patent US20260262643A1, “HERBICIDAL BENZOXAZINES” (FMC CORPORATION, priority 2022, published 2026).

Key:
horseweed = assay: Test C postemergence; format: in vivo, Erigeron canadensis; conditions: 10 days, 0 to 100 scale (0 no effect, 100 complete control)
Summary of the method: (§1)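 Greenhouse herbicide screen, 10-day duration. Test chemicals in solvent/surfactant blend were sprayed onto soil at sowing (pre) or onto 2–10 cm seedlings at one to two leaves (post); injury scored visually against controls, 0 no effect to 100 complete control.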

soybean [1] = assay: Test C preemergence; format: in vivo, Glycine max
Summary of the method: as §1

pigweed, palmer [2] = assay: Test C preemergence; format: in vivo, Amaranthus palmeri
Summary of the method: as §1

ragweed [3] = assay: Test C postemergence; format: in vivo, Ambrosia artemisiifolia; conditions: 10 days, 0 to 100 scale (0 no effect, 100 complete control)
Summary of the method: as §1

foxtail, giant [4] = assay: Test C preemergence; format: in vivo, Setaria faberi
Summary of the method: as §1

oat, wild [5] = assay: Test C preemergence; format: in vivo, Avena fatua
Summary of the method: as §1

kochia [6] = assay: Test C postemergence; format: in vivo, Bassia scoparia; conditions: 10 days, 0 to 100 scale (0 no effect, 100 complete control)
Summary of the method: as §1

barnyardgrass [7] = assay: Test D flooded paddy test; format: in vivo, Echinochloa crus-galli; conditions: 250 g ai/ha, applied to paddy water, visual rating after 13 to 14 days, scale 0 to 100 (0 no effect, 100 complete control)
Summary of the method: (§2)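 At the 2-leaf stage, floodwater 3 cm deep received the test compound; that depth persisted throughout. Plants scored visually 13 to 14 days on, 0 (no effect) to 100 (complete control), dash indicating no result.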

ryegrass, Italian [8] = assay: Test C postemergence; format: in vivo, Lolium multiflorum; conditions: 10 days, 0 to 100 scale (0 no effect, 100 complete control)
Summary of the method: as §1

soybean [9] = assay: Test C postemergence; format: in vivo, Glycine max; conditions: 10 days, 0 to 100 scale (0 no effect, 100 complete control)
Summary of the method: as §1

rice = assay: Test D flooded paddy test; format: in vivo, Oryza sativa; conditions: 250 g ai/ha, applied to paddy water, visual rating after 13 to 14 days, scale 0 to 100 (0 no effect, 100 complete control)
Summary of the method: as §2

corn [10] = assay: Test C preemergence; format: in vivo, Zea mays
Summary of the method: as §1

wheat [11] = assay: Test C preemergence; format: in vivo, Triticum aestivum
Summary of the method: as §1

ryegrass, Italian [12] = assay: Test C preemergence; format: in vivo, Lolium multiflorum
Summary of the method: as §1

pigweed, palmer [13] = assay: Test C postemergence; format: in vivo, Amaranthus palmeri; conditions: 10 days, 0 to 100 scale (0 no effect, 100 complete control)
Summary of the method: as §1

ragweed [14] = assay: Test C preemergence; format: in vivo, Ambrosia artemisiifolia
Summary of the method: as §1

barnyardgrass [15] = assay: Test C postemergence; format: in vivo, Echinochloa crusgalli; conditions: 10 days, 0 to 100 scale (0 no effect, 100 complete control)
Summary of the method: as §1

ducksalad = assay: Test D flooded paddy test; format: in vivo, Heteranthera limosa; conditions: 250 g ai/ha, applied to paddy water, visual rating after 13 to 14 days, scale 0 to 100 (0 no effect, 100 complete control)
Summary of the method: as §2

galium = assay: Test C postemergence; format: in vivo, Galium aparine; conditions: 10 days, 0 to 100 scale (0 no effect, 100 complete control)
Summary of the method: as §1

corn [16] = assay: Test C postemergence; format: in vivo, Zea mays; conditions: 10 days, 0 to 100 scale (0 no effect, 100 complete control)
Summary of the method: as §1

kochia [17] = assay: Test C preemergence; format: in vivo, Bassia scoparia
Summary of the method: as §1

barnyardgrass [18] = assay: Test C preemergence; format: in vivo, Echinochloa crusgalli
Summary of the method: as §1

blackgrass [19] = assay: Test C preemergence; format: in vivo, Alopecurus myosuroides
Summary of the method: as §1

sedge, umbrella = assay: Test D flooded paddy test; format: in vivo, Cyperus difformis; conditions: 250 g ai/ha, applied to paddy water, visual rating after 13 to 14 days, scale 0 to 100 (0 no effect, 100 complete control)
Summary of the method: as §2

oat, wild [20] = assay: Test C postemergence; format: in vivo, Avena fatua; conditions: 10 days, 0 to 100 scale (0 no effect, 100 complete control)
Summary of the method: as §1

blackgrass [21] = assay: Test C postemergence; format: in vivo, Alopecurus myosuroides; conditions: 10 days, 0 to 100 scale (0 no effect, 100 complete control)
Summary of the method: as §1

foxtail, giant [22] = assay: Test C postemergence; format: in vivo, Setaria faberi; conditions: 10 days, 0 to 100 scale (0 no effect, 100 complete control)
Summary of the method: as §1

wheat [23] = assay: Test C postemergence; format: in vivo, Triticum aestivum; conditions: 10 days, 0 to 100 scale (0 no effect, 100 complete control)
Summary of the method: as §1

[24] = 500 g ai/ha, preemergence, 0 to 100 scale (0 no effect, 100 complete control)
[25] = Preemergence, 125 g ai/ha, 0 to 100 scale, 0 no effect, 100 complete control

For Cc1ccc(-n2cncn2)cc1C(=O)N1CC(C(F)(F)F)Oc2c(Cl)cccc21 (stereo not shown) [Compound 346], the “Plant response rating, Horseweed” value (horseweed; 500 g ai/ha, postemergence) was 0, the “Plant response rating, Horseweed” value (horseweed; Postemergence, 125 g ai/ha) was 0 and the “Soybean plant response rating” value (soybean [1]; [24]) was 100. The “Plant response rating, Soybean” value (soybean [1]; [25]) was 30, the “Pigweed, Palmer plant response rating” value (pigweed, palmer [2]; [24]) was 100 and the “Plant response rating, Pigweed, Palmer” value (pigweed, palmer [2]; [25]) was 100. The “Plant response rating, Ragweed” value (ragweed [3]; 500 g ai/ha, postemergence) was 40, the “Plant response rating, Ragweed” value (ragweed [3]; Postemergence, 125 g ai/ha) was 30 and the “Foxtail, Giant plant response rating” value (foxtail, giant [4]; [24]) was 100. The “Plant response rating, Foxtail, Giant” value (foxtail, giant [4]; [25]) was 100, the “Oat, Wild plant response rating” value (oat, wild [5]; [24]) was 40 and the “Plant response rating, Oat, Wild” value (oat, wild [5]; [25]) was 0. For the same compound, the “Plant response rating, Kochia” value (kochia [6]; 500 g ai/ha, postemergence) was 80, the “Plant response rating, Kochia” value (kochia [6]; Postemergence, 125 g ai/ha) was 70 and the “Plant response rating, Barnyardgrass (Flood)” value (barnyardgrass [7]) was 0. For the same compound, the “Plant response rating, Ryegrass, Italian” value (ryegrass, Italian [8]; 500 g ai/ha, postemergence) was 80, the “Plant response rating, Ryegrass, Italian” value (ryegrass, Italian [8]; Postemergence, 125 g ai/ha) was 70 and the “Plant response rating, Soybean” value (soybean [9]; 500 g ai/ha, postemergence) was 100. For the same compound, the “Plant response rating, Soybean” value (soybean [9]; Postemergence, 125 g ai/ha) was 90, the “Plant response rating, Rice (Flood)” value (rice) was 0 and the “Corn plant response rating” value (corn [10]; [24]) was 90. The “Plant response rating, Corn” value (corn [10]; [25]) was 0, the “Wheat plant response rating” value (wheat [11]; [24]) was 80 and the “Plant response rating, Wheat” value (wheat [11]; [25]) was 0. For the same compound, the “Ryegrass, Italian plant response rating” value (ryegrass, Italian [12]; [24]) was 90, the “Plant response rating, Ryegrass, Italian” value (ryegrass, Italian [12]; [25]) was 80 and the “Plant response rating, Pigweed, Palmer” value (pigweed, palmer [13]; 500 g ai/ha, postemergence) was 70. For the same compound, the “Plant response rating, Pigweed, Palmer” value (pigweed, palmer [13]; Postemergence, 125 g ai/ha) was 40, the “Ragweed plant response rating” value (ragweed [14]; [24]) was 10 and the “Plant response rating, Ragweed” value (ragweed [14]; [25]) was 0. The “Plant response rating, Barnyardgrass” value (barnyardgrass [15]; 500 g ai/ha, postemergence) was 70, the “Plant response rating, Barnyardgrass” value (barnyardgrass [15]; Postemergence, 125 g ai/ha) was 40 and the “Plant response rating, Ducksalad (Flood)” value (ducksalad) was 65. The “Plant response rating, Galium” value (galium; 500 g ai/ha, postemergence) was 100, the “Plant response rating, Galium” value (galium; Postemergence, 125 g ai/ha) was 100 and the “Plant response rating, Corn” value (corn [16]; 500 g ai/ha, postemergence) was 90. For the same compound, the “Plant response rating, Corn” value (corn [16]; Postemergence, 125 g ai/ha) was 10, the “Kochia plant response rating” value (kochia [17]; [24]) was 80 and the “Plant response rating, Kochia” value (kochia [17]; [25]) was 10. The “Barnyardgrass plant response rating” value (barnyardgrass [18]; [24]) was 100, the “Plant response rating, Barnyardgrass” value (barnyardgrass [18]; [25]) was 70 and the “Blackgrass plant response rating” value (blackgrass [19]; [24]) was 90. The “Plant response rating, Blackgrass” value (blackgrass [19]; [25]) was 80, the “Plant response rating, Sedge, Umbrella (Flood)” value (sedge, umbrella) was 85 and the “Plant response rating, Oat, Wild” value (oat, wild [20]; 500 g ai/ha, postemergence) was 60. For the same compound, the “Plant response rating, Oat, Wild” value (oat, wild [20]; Postemergence, 125 g ai/ha) was 0, the “Plant response rating, Blackgrass” value (blackgrass [21]; 500 g ai/ha, postemergence) was 90 and the “Plant response rating, Blackgrass” value (blackgrass [21]; Postemergence, 125 g ai/ha) was 80. For the same compound, the “Plant response rating, Foxtail, Giant” value (foxtail, giant [22]; 500 g ai/ha, postemergence) was 90, the “Plant response rating, Foxtail, Giant” value (foxtail, giant [22]; Postemergence, 125 g ai/ha) was 90 and the “Plant response rating, Wheat” value (wheat [23]; 500 g ai/ha, postemergence) was 70. The “Plant response rating, Wheat” value (wheat [23]; Postemergence, 125 g ai/ha) was 20.
